The results in this text go back to patent US20080249091A1, “Indoles Useful in the Treatment of Inflammation” (priority 2005, published 2008).

By IC50 is commonly meant the midpoint of a concentration-inhibition curve.

This experiment concerns the target T1, mPGES-1 (Homo sapiens, UniProt O14684).
T1 construct: made in house; host or cells: E. coli (membrane fraction)
T1 sequence (O14684 1-152): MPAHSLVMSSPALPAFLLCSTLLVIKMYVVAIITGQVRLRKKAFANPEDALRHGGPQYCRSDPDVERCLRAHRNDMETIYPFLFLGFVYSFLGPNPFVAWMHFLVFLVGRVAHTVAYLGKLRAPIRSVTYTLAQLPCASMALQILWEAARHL
The experiment can be described thus: mPGES-1 assay: conversion of PGH2 to PGE2, HPLC analysis. Format: biochemical. To be noted: mPGES-1 expressed in E. coli; 25 min preincubation with inhibitor at room temperature; PGH2 substrate 60 seconds; read-out: IC50 values (inhibition of mPGES-1). On the procedure: In the assay mPGES-1 catalyses the reaction where the substrate PGH2 is converted to PGE2. mPGES-1 is expressed in E. coli and the membrane fraction is dissolved in 20 mM NaPi-buffer pH 8.0 and stored at −80° C. In the assay mPGES-1 is dissolved in 0.1M KPi-buffer pH 7.35 with 2.5 mM glutathione. The stop solution consists of H2O/MeCN (7/3), containing FeCl2 (25 mM) and HCl (0.15 M). The assay is performed at room temperature in 96-well plates. Analysis of the amount of PGE2 is performed with reversed phase HPLC (Waters 2795 equipped with a 3.9×150 mm C18 column). The mobile phase consists of H2O/MeCN (7/3), containing TFA (0.056%), and absorbance is measured at 195 nm with a Waters 2487 UV-detector.
The following is added chronologically to each well: • 1. 100 μL mPGES-1 in KPi-buffer with glutathione. Total protein concentration: 0.02 mg/mL. • 2. 1 μL inhibitor in DMSO. Incubation of the plate at room temperature for 25 minutes. • 3. 4 μL of a 0.25 mM PGH2 solution. Incubation of the plate at room temperature for 60 seconds. • 4. 100 μL stop solution. • 180 μL per sample is analyzed with HPLC.
Take `CC(C)Oc1ccc(-n2c(C(=O)O)cc3cc(Oc4cccc(OC(C)C)c4)ccc32)cc1` [Example 1, 5-(3-Isopropoxyphenoxy)-1-(4-isopropoxyphenyl)indole-2-carboxylic acid]: the IC50 was 0.43 µM. Next, `CC(C)Oc1ccc(-n2c(C(=O)O)cc3cc(Oc4ccc(Cl)cc4)ccc32)cc1` [Example 10, 5-(4-Chlorophenoxy)-1-(4-isopropoxyphenyl)indole-2-carboxylic acid]: 0.24 µM; `CC(C)Oc1ccc(-n2c(C(=O)O)cc3cc(Oc4cnc5ccccc5c4)ccc32)cc1` [Example 13, 1-(4-Isopropoxyphenyl)-5-(quinolin-3-yloxy)indole-2-carboxylic acid]: 3.7 µM; `O=C(O)c1cc2cc(Oc3ccc(C4CCCCC4)cc3)ccc2n1-c1ccc(OC2CC2)cc1` [Example 21, 5-(4-Cyclohexylphenoxy)-1-(4-cyclopropoxyphenyl)indole-2-carboxylic acid]: 0.075 µM.

As to `O=C(c1ccc(Cl)cc1)c1ccc2c(c1)c(Cl)c(C(=O)O)n2-c1ccc(OC2CCCC2)cc1` [Example 40, 3-Chloro-5-(4-chlorobenzoyl)-1-(4-cyclopentyloxyphenyl)indole-2-carboxylic acid], the IC50 stood at 0.61 µM.
